Assay results taken from patent US11802129B1, “Pyrido[3,4-b]indol-1-one compounds as anticancer agents” (KING FAISAL UNIVERSITY, priority 2023, dated 2023).
pIC50: −log10 of the molar value.

Key:
[1] = tested on: MDA-MB-231 (breast); test: In vitro cytotoxic activity (MTT) assay, MDA-MB-231; format: cell-based; settings: Human MDA-MB-231 (breast) cells, exposed for 96 hours
Experimental: (§1) Compounds 1-10 were screened for their in vitro cytotoxic activity utilizing a 3-(4,5-dimethyl-thiazol-2-yl)-2,5-diphenyltetrazolium bromide (MTT) assay against selected cancer murine and human cancer cell lines (T. Mosmann, J. Immunol. Meth., 1983, 65, 55-63). The cells were cultured at 37° C. in RMPI1640 medium supplemented with 10% fetal bovine serum, 50 IU/mL penicillin, and 50 μg/mL streptomycin in a 5% CO2 incubator. All cells were sub-cultured 3 times/week by trypsinisation. Viable cells were seeded and allowed to adhere for 12 h before a test drug was added in 96-well plates at an initial density of 1.0×10^5 cells/mL. Tumour cell lines were separately exposed to various concentrations of the tested compounds followed by incubation at a temperature of 37° C. during 4 days inside a medium of fresh RMPI 1640. Cells were subsequently incubated at 37° C. using MTT at 0.5 mg/mL during 4 h. After removal of supernatant, formazan crystals were dissolved in isopropanol and the optical density was measured at 570 nm. CX-4945 has been used as a positive control.

[2] = tested on: A375 (melanoma); test: In vitro cytotoxic activity (MTT) assay, A375; format: cell-based; settings: A-375; Human A375 (melanoma) cells, exposed for 96 hours
Experimental: as §1

[3] = tested on: MIAPaCa-2 (pancreas); test: In vitro cytotoxic activity (MTT) assay, MIAPaCa-2; format: cell-based; settings: MIA PaCa-2; Human MIAPaCa-2 (pancreas) cells, exposed for 96 hours
Experimental: as §1

[4] = target: T1, CK2 (Homo sapiens, UniProt P68400); test: In vitro CK2 inhibitory assay (CK2 assay kit); format: biochemical; settings: CK2 assay kit (Upstate Biotechnology)
T1 construct: purchased Upstate Biotechnology, Lake Placid, NY, USA
T1 sequence (P68400 whole entry): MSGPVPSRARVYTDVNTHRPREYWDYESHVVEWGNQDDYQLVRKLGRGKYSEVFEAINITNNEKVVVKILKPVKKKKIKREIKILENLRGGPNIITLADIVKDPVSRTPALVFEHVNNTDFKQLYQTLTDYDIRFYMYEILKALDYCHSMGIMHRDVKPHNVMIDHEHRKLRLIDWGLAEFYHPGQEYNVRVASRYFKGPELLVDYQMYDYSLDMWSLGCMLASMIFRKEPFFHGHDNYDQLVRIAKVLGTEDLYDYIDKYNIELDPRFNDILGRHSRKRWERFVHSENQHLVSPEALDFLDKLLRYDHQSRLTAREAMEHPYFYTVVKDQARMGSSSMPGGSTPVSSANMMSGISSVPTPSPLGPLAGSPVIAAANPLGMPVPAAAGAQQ
Experimental: CK2 activity was assessed by using a CK2 assay kit (Upstate Biotechnology, Lake Placid, NY, USA) according to the manufacturer's instructions [T. Tiganis, C. M. House, B. E. Kemp, Arch. Biochem. Biophys. 1996,325, 289-294].

[5] = tested on: MCF7 (breast); test: In vitro cytotoxic activity (MTT) assay, MCF7; format: cell-based; settings: Human MCF7 (breast) cells, exposed for 96 hours
Experimental: as §1

[6] = tested on: PC3 (prostate); test: In vitro cytotoxic activity (MTT) assay, PC3; format: cell-based; settings: Prostate cell; Human PC3 (prostate) cells, exposed for 96 hours
Experimental: as §1

[7] = tested on: B16 melanoma; test: In vitro cytotoxic activity (MTT) assay, B16 melanoma; format: cell-based; settings: Mus musculus; Murine B16 melanoma cells, exposed for 96 hours
Experimental: as §1

[8] = tested on: Colon C38 adenocarcinoma; test: In vitro cytotoxic activity (MTT) assay, Colon C38 adenocarcinoma; format: cell-based; settings: Mus musculus; Murine Colon C38 adenocarcinoma cells, exposed for 96 hours
Experimental: as §1

[9] = tested on: HCT116 (colon); test: In vitro cytotoxic activity (MTT) assay, HCT116; format: cell-based; settings: HCT-116; Human HCT116 (colon) cells, exposed for 96 hours
Experimental: as §1

[10] = tested on: H1299 (lung); test: In vitro cytotoxic activity (MTT) assay, H1299; format: cell-based; settings: NCI-H1299; Human H1299 (lung) cells, exposed for 96 hours
Experimental: as §1

[11] = tested on: HL60 (leukemia); test: In vitro cytotoxic activity (MTT) assay, HL60; format: cell-based; settings: HL-60; Human HL60 (leukemia) cells, exposed for 96 hours
Experimental: as §1

[12] = tested on: Leukemia P388; test: In vitro cytotoxic activity (MTT) assay, Leukemia P388; format: cell-based; settings: Mus musculus; Murine Leukemia P388 cells, exposed for 96 hours
Experimental: as §1

How did the pIC50 [1] turn out when O=C(O)c1ccc2[nH]c3c(=O)[nH]cc(Nc4cccc(Cl)c4)c3c2c1 [Example 3, 4-((3-chlorophenyl)amino)-1-oxo-2,9-dihydro-1H-pyrido[3,4-b]indole-6-carboxylic acid] was run?
Its pIC50 is 5.18.

And the pIC50 [2]?
The pIC50 was 5.36.

And the pIC50 [3]?
The pIC50 was 5.24.

What about the pIC50 [4] of the same compound?
The pIC50 was 8.30.

And the pIC50 [5]?
The pIC50 was 5.12.

What about the pIC50 [6] of the same compound?
Its pIC50 is 5.59.

And the pIC50 [7]?
Its pIC50 is 5.17.

What about the pIC50 [8] of the same compound?
The pIC50 was 5.36.

And the pIC50 [9]?
Its pIC50 is 5.48.

And the pIC50 [10]?
The pIC50 was 5.68.

And the pIC50 [11]?
Its pIC50 is 5.20.

And the pIC50 [12]?
The pIC50 was 5.26.
